# Active and inactive are the calls of the source. The rule behind the calls is not given here.
# Tests used:
# Mus musculus [1] = assay: Anticonvulsant activity in albino CF1 mouse assessed as protection against maximal electroshock-induced seizures at 100 mg/kg, ip measured after 1 hr; assay type: functional, organism-based; parameters: dose 100 mg/kg
# Mus musculus [2] = assay: Anticonvulsant activity in albino CF1 mouse assessed as protection against maximal electroshock-induced seizures at 100 mg/kg, ip measured after 4 hrs; assay type: functional, organism-based; parameters: dose 100 mg/kg
# Mus musculus [3] = assay: Neurotoxicity in albino CF1 mouse at 100 mg/kg, ip measured after 0.25 hr; assay type: toxicity, organism-based; parameters: dose 100 mg/kg, route intraperitoneal; conditions: in vivo
# Mus musculus [4] = assay: Neurotoxicity in albino CF1 mouse at 100 mg/kg, ip measured after 0.5 hr; assay type: toxicity, organism-based; parameters: dose 100 mg/kg, route intraperitoneal; conditions: in vivo
# Mus musculus [5] = assay: Neurotoxicity in albino CF1 mouse at 100 mg/kg, ip measured after 1 hr; assay type: toxicity, organism-based; parameters: dose 100 mg/kg, route intraperitoneal; conditions: in vivo
# Mus musculus [6] = assay: Anticonvulsant activity in albino CF1 mouse assessed as protection against 32 mA current-induced seizures at 100 mg/kg, ip measured after 0.25 hr; assay type: functional, organism-based; parameters: dose 100 mg/kg
# Mus musculus [7] = assay: Anticonvulsant activity in albino CF1 mouse assessed as protection against 32 mA current-induced seizures at 100 mg/kg, ip measured after 0.5 hr; assay type: functional, organism-based; parameters: dose 100 mg/kg
# Mus musculus [8] = assay: Anticonvulsant activity in albino CF1 mouse assessed as protection against 32 mA current-induced seizures at 100 mg/kg, ip measured after 2 hrs; assay type: functional, organism-based; parameters: dose 100 mg/kg
# Mus musculus [9] = assay: Anticonvulsant activity in albino CF1 mouse assessed as protection against 32 mA current-induced seizures at 100 mg/kg, ip measured after 4 hrs; assay type: functional, organism-based; parameters: dose 100 mg/kg
# Mus musculus [10] = assay: Neurotoxicity in 32 mA current-induced seizure albino CF1 mouse model at 100 mg/kg, ip measured after 0.25 hr; assay type: toxicity, organism-based; parameters: dose 100 mg/kg, route intraperitoneal; conditions: in vivo
# Mus musculus [11] = assay: Neurotoxicity in 32 mA current-induced seizure albino CF1 mouse model at 100 mg/kg, ip measured after 1 hr; assay type: toxicity, organism-based; parameters: dose 100 mg/kg, route intraperitoneal; conditions: in vivo
# Mus musculus [12] = assay: Anticonvulsant activity in albino CF1 mouse assessed as protection against 44 mA current-induced seizures at 100 mg/kg, ip measured after 0.25 hr; assay type: functional, organism-based; parameters: dose 100 mg/kg
# Mus musculus [13] = assay: Anticonvulsant activity in albino CF1 mouse assessed as protection against 44 mA current-induced seizures at 100 mg/kg, ip measured after 0.5 hr; assay type: functional, organism-based; parameters: dose 100 mg/kg
# Mus musculus [14] = assay: Anticonvulsant activity in albino CF1 mouse assessed as protection against 44 mA current-induced seizures at 100 mg/kg, ip measured after 1 hr; assay type: functional, organism-based; parameters: dose 100 mg/kg
# Mus musculus [15] = assay: Neurotoxicity in 44 mA current-induced seizure albino CF1 mouse model at 100 mg/kg, ip measured after 0.25 hr; assay type: toxicity, organism-based; parameters: dose 100 mg/kg, route intraperitoneal; conditions: in vivo
# Mus musculus [16] = assay: Neurotoxicity in 44 mA current-induced seizure albino CF1 mouse model at 100 mg/kg, ip measured after 0.5 hr; assay type: toxicity, organism-based; parameters: dose 100 mg/kg, route intraperitoneal; conditions: in vivo
# Mus musculus [17] = assay: Neurotoxicity in 44 mA current-induced seizure albino CF1 mouse model at 100 mg/kg, ip measured after 1 hr; assay type: toxicity, organism-based; parameters: dose 100 mg/kg, route intraperitoneal; conditions: in vivo
# Mus musculus [18] = assay: Neurotoxicity in 44 mA current-induced seizure albino CF1 mouse model at 100 mg/kg, ip measured after 4 hrs; assay type: toxicity, organism-based; parameters: dose 100 mg/kg, route intraperitoneal; conditions: in vivo
# Rattus norvegicus [19] = assay: Anticonvulsant activity in Sprague-Dawley rat assessed as protection against maximal electroshock-induced seizures at 30 mg/kg, po measured after 1 hr; assay type: functional, organism-based; parameters: dose 30 mg/kg
# Rattus norvegicus [20] = assay: Neurotoxicity in MES Sprague-Dawley rat model at 30 mg/kg, po measured after 0.25 hr; assay type: toxicity, organism-based; parameters: dose 30 mg/kg, route oral; conditions: in vivo
# Rattus norvegicus [21] = assay: Neurotoxicity in MES Sprague-Dawley rat model at 30 mg/kg, po measured after 2 hrs; assay type: toxicity, organism-based; parameters: dose 30 mg/kg, route oral; conditions: in vivo
# Rattus norvegicus [22] = assay: Anticonvulsant activity in Sprague-Dawley rat assessed as protection against maximal electroshock-induced seizures at 30 mg/kg, ip measured after 0.5 hr; assay type: functional, organism-based; parameters: dose 30 mg/kg
# Rattus norvegicus [23] = assay: Anticonvulsant activity in Sprague-Dawley rat assessed as protection against maximal electroshock-induced seizures at 30 mg/kg, ip measured after 1 hr; assay type: functional, organism-based; parameters: dose 30 mg/kg
# Rattus norvegicus [24] = assay: Anticonvulsant activity in Sprague-Dawley rat assessed as protection against maximal electroshock-induced seizures at 30 mg/kg, ip measured after 2 hrs; assay type: functional, organism-based; parameters: dose 30 mg/kg
# Rattus norvegicus [25] = assay: Anticonvulsant activity in Sprague-Dawley rat assessed as protection against maximal electroshock-induced seizures at 30 mg/kg, ip measured after 4 hrs; assay type: functional, organism-based; parameters: dose 30 mg/kg
# Rattus norvegicus [26] = assay: Neurotoxicity in MES Sprague-Dawley rat model at 30 mg/kg, ip measured after 4 hrs; assay type: toxicity, organism-based; parameters: dose 30 mg/kg, route intraperitoneal; conditions: in vivo
# Mus musculus [27] = assay: Anticonvulsant activity in ip dosed albino CF1 mouse assessed as protection against maximal electroshock-induced seizures; assay type: functional
# Mus musculus [28] = assay: Anticonvulsant activity in ip dosed albino CF1 mouse assessed as protection against subcutaneous metrazol-induced seizures; assay type: functional
# [29] = Neurotoxicity in ip dosed albino CF1 mouse; assay type: toxicity, organism-based; conditions: in vivo
# [30] = Protective index, ratio of TD50 for neurotoxicity in ip dosed albino CF1 mouse to ED50 for anticonvulsant activity in ip dosed MES albino CF1 mouse model; assay type: toxicity, organism-based; conditions: in vivo, read-out: Ratio TD50/ED50
# Mus musculus [31] = assay: Anticonvulsant activity in ip dosed albino CF1 mouse assessed as protection against maximal electroshock-induced seizures measured as time to peak effect; assay type: functional
# Rattus norvegicus [32] = assay: Anticonvulsant activity in ip dosed Sprague-Dawley rat assessed as protection against subcutaneous metrazol-induced seizures; assay type: functional
# [33] = Neurotoxicity in ip dosed Sprague-Dawley rat; assay type: toxicity, organism-based; conditions: in vivo
# Rattus norvegicus [34] = assay: Anticonvulsant activity in ip dosed Sprague-Dawley rat assessed as protection against maximal electroshock-induced seizures measured as time to peak effect; assay type: functional
# Mus musculus [35] = assay: Anticonvulsant activity in ip dosed albino CF1 mouse assessed as protection against 32 mA current-induced seizures; assay type: functional
# Mus musculus [36] = assay: Anticonvulsant activity in ip dosed albino CF1 mouse assessed as protection against 6 Hz current-induced seizures measured as time to peak effect; assay type: functional
# Rattus norvegicus [37] = assay: Anticonvulsant activity in ip dosed hippocampal kindled albino Sprague-Dawley rat seizure model assessed as time of rest; assay type: functional, Hippocampus
# Mus musculus [38] = assay: Anticonvulsant activity in ip dosed albino CF1 mouse assessed as protection against iv infusion metrazol-induced seizures; assay type: functional, organism-based
# Mus musculus [39] = assay: Anticonvulsant activity in albino CF1 mouse assessed as protection against iv infusion metrazol-induced seizures measured as weight at 24 mg/kg, ip (reference value: 26.75 grams); assay type: functional
# Mus musculus [40] = assay: Anticonvulsant activity in albino CF1 mouse assessed as protection against iv infusion metrazol-induced seizures measured as time to twitch at 24 mg/kg, ip (reference value: 26.6 seconds); assay type: functional
# Mus musculus [41] = assay: Anticonvulsant activity in albino CF1 mouse assessed as protection against iv infusion metrazol-induced seizures measured as twitch at 24 mg/kg, ip (reference value: 28.2 mg/kg); assay type: functional
# Mus musculus [42] = assay: Anticonvulsant activity in albino CF1 mouse assessed as protection against iv infusion metrazol-induced seizures measured as twitch at 79 mg/kg, ip (reference value: 28.2 mg/kg); assay type: functional
# Mus musculus [43] = assay: Anticonvulsant activity in albino CF1 mouse assessed as protection against iv infusion metrazol-induced seizures measured as time to clonus at 24 mg/kg, ip (reference value: 29.4 seconds); assay type: functional
# Mus musculus [44] = assay: Anticonvulsant activity in albino CF1 mouse assessed as protection against iv infusion metrazol-induced seizures measured as time to clonus at 79 mg/kg, ip (reference value: 29.4 seconds); assay type: functional
# Mus musculus [45] = assay: Anticonvulsant activity in albino CF1 mouse assessed as protection against iv infusion metrazol-induced seizures measured as clonus at 24 mg/kg, ip (reference value: 31.1 mg/kg); assay type: functional
smiles,measurement,setting,value
O=C1NC(=O)[C@@H]2CCCN2[C@H]1c1cccc(OC(F)(F)F)c1,Activity,Mus musculus [1],Active
same,Activity,Mus musculus [2],inactive
same,Activity,Mus musculus [3],Toxic
same,Activity,Mus musculus [4],Toxic
same,Activity,Mus musculus [5],Non-toxic
same,Activity,Mus musculus [6],Active
same,Activity,Mus musculus [7],Active
same,Activity,Mus musculus [8],inactive
same,Activity,Mus musculus [9],inactive
same,Activity,Mus musculus [10],Toxic
same,Activity,Mus musculus [11],Non-toxic
same,Activity,Mus musculus [12],Active
same,Activity,Mus musculus [13],Active
same,Activity,Mus musculus [14],Active
same,Activity,Mus musculus [15],Toxic
same,Activity,Mus musculus [16],Toxic
same,Activity,Mus musculus [17],Non-toxic
same,Activity,Mus musculus [18],Non-toxic
same,Activity,Rattus norvegicus [19],inactive
same,Activity,Rattus norvegicus [20],Non-toxic
same,Activity,Rattus norvegicus [21],Non-toxic
same,Activity,Rattus norvegicus [22],Active
same,Activity,Rattus norvegicus [23],Active
same,Activity,Rattus norvegicus [24],inactive
same,Activity,Rattus norvegicus [25],inactive
same,Activity,Rattus norvegicus [26],Non-toxic
same,ED50,Mus musculus [27],76 µmol/kg
same,ED50,Mus musculus [28],200 µmol/kg
same,TD50,[29],252 µmol/kg
same,selectivity ratio,[30],3.2
same,Time,Mus musculus [31],0.25 h
same,ED50,Rattus norvegicus [32],41 µmol/kg
same,TD50,[33],114 µmol/kg
same,Time,Rattus norvegicus [34],0.25 h
same,ED50,Mus musculus [35],176 µmol/kg
same,Time,Mus musculus [36],0.25 h
same,Time,Rattus norvegicus [37],0.25 h
same,Activity,Mus musculus [38],Dose-dependent effect
same,Activity,Mus musculus [39],26.8 g
same,Time,Mus musculus [40],33.3 s
same,Activity,Mus musculus [41],35.2 mg/kg
same,Activity,Mus musculus [42],64.8 mg/kg
same,Time,Mus musculus [43],39.4 s
same,Time,Mus musculus [44],94.6 s
same,Activity,Mus musculus [45],41.7 mg/kg

# — ChEMBL document CHEMBL3352057, “Novel fluorinated pyrrolo[1,2-a]pyrazine-2,6-dione derivatives: synthesis and anticonvulsant evaluation in animal models of epilepsy” (Bioorg Med Chem, 2014)
